Data: BindingDB's records for doi:10.1016/s0960-894x(00)00535-7 (Kyoto University, 2000)
Where a SMILES comes first, the peptide text is derived from it. Bridges are numbered along the chain shown (N, C = ends). [ ]: non-standard residue; d: D form. 2Nal = N[C@@H](Cc1ccc2ccccc2c1)C(=O)O; Cit = NC(=O)NCCC[C@H](N)C(=O)O

Experiment: Inhibition of HIV-induced cytopathogenicity in MT-4 cell

Row | Structure (SMILES) | EC50 [µM]
1 | C[C@@H]1NC(=O)[C@H](CCCN=C(N)N)NC(=O)[C@H](Cc2ccc(O)cc2)NC(=O)[C@@H]2CCCN2C(=O)[C@@H](CCCCN)NC(=O)[C@H](CCCCN)NC(=O)[C@H](CCCN=C(N)N)NC(=O)[C@H](Cc2ccc(O)cc2)NC(=O)[C@@H](NC(=O)[C@H](Cc2ccc3ccccc3c2)NC(=O)[C@H](CCCN=C(N)N)NC(=O)[C@@H](N)CCCN=C(N)N)CSSC[C@@H](C(=O)N[C@@H](CCCN=C(N)N)C(=O)O)NC1=O | 0.016
2 | NCCCC[C@@H]1NC(=O)[C@H](CCCNC(N)=O)NC(=O)[C@H](Cc2ccc(O)cc2)NC(=O)[C@@H](NC(=O)[C@H](Cc2ccc3ccccc3c2)NC(=O)[C@H](CCCN=C(N)N)NC(=O)[C@@H](N)CCCN=C(N)N)CSSC[C@@H](C(=O)N[C@@H](CCCN=C(N)N)C(=O)O)NC(=O)[C@H](CCCNC(N)=O)NC(=O)[C@H](CCCN=C(N)N)NC(=O)[C@H](Cc2ccc(O)cc2)NC(=O)[C@@H]2CCCN2C(=O)[C@@H](CCCCN)NC1=O | 0.0028
3 | NCCCC[C@@H]1NC(=O)[C@H](CCCN=C(N)N)NC(=O)[C@H](Cc2ccc(O)cc2)NC(=O)[C@@H](NC(=O)[C@H](Cc2ccc3ccccc3c2)NC(=O)[C@H](CCCN=C(N)N)NC(=O)[C@@H](N)CCCNC(N)=O)CSSC[C@@H](C(=O)N[C@@H](CCCN=C(N)N)C(=O)O)NC(=O)[C@H](CCCNC(N)=O)NC(=O)[C@H](CCCN=C(N)N)NC(=O)[C@H](Cc2ccc(O)cc2)NC(=O)[C@@H]2CCCN2C(=O)[C@@H](CCCCN)NC1=O | 0.015
4 | CC(N)C(=O)N[C@@H](CCCN=C(N)N)C(=O)N[C@@H](Cc1ccc2ccccc2c1)C(=O)N[C@H]1CSSC[C@@H](C(=O)N[C@@H](CCCN=C(N)N)C(=O)O)NC(=O)[C@H](CCCNC(N)=O)NC(=O)[C@H](CCCN=C(N)N)NC(=O)[C@H](Cc2ccc(O)cc2)NC(=O)[C@@H]2CCCN2C(=O)[C@@H](CCCCN)NC(=O)[C@H](CCCCN)NC(=O)[C@H](CCCN=C(N)N)NC(=O)[C@H](Cc2ccc(O)cc2)NC1=O (stereo partly specified) | 0.056
5 | C[C@H]1NC(=O)[C@H](CCCCN)NC(=O)[C@H](CCCN=C(N)N)NC(=O)[C@H](Cc2ccc(O)cc2)NC(=O)[C@@H](NC(=O)[C@H](Cc2ccc3ccccc3c2)NC(=O)[C@H](CCCN=C(N)N)NC(=O)[C@@H](N)CCCN=C(N)N)CSSC[C@@H](C(=O)N[C@@H](CCCN=C(N)N)C(=O)O)NC(=O)[C@H](CCCNC(N)=O)NC(=O)[C@H](CCCN=C(N)N)NC(=O)[C@H](Cc2ccc(O)cc2)NC(=O)[C@@H]2CCCN2C1=O | 0.016
6 | NCCCC[C@@H]1NC(=O)[C@H](CCCN=C(N)N)NC(=O)[C@H](Cc2ccc(O)cc2)NC(=O)[C@@H](NC(=O)[C@H](Cc2ccc3ccccc3c2)NC(=O)[C@H](CCCN=C(N)N)NC(=O)[C@@H](N)CCCN=C(N)N)CSSC[C@@H](C(=O)N[C@@H](CCCN=C(N)N)C(=O)O)NC(=O)[C@H](CCCNC(N)=O)NC(=O)[C@H](CCCN=C(N)N)NC(=O)[C@H](Cc2ccc(O)cc2)NC(=O)[C@@H]2CCCN2C(=O)[C@@H](CCCCN)NC1=O (H-RR[2Nal]CYRK[dK]PYR[Cit]CR-OH; disulfide 4-13) | 0.0033
7 | C[C@@H]1NC(=O)[C@@H]2CCCN2C(=O)[C@@H](CCCCN)NC(=O)[C@H](CCCCN)NC(=O)[C@H](CCCN=C(N)N)NC(=O)[C@H](Cc2ccc(O)cc2)NC(=O)[C@@H](NC(=O)[C@H](Cc2ccc3ccccc3c2)NC(=O)[C@H](CCCN=C(N)N)NC(=O)[C@@H](N)CCCN=C(N)N)CSSC[C@@H](C(=O)N[C@@H](CCCN=C(N)N)C(=O)O)NC(=O)[C@H](CCCNC(N)=O)NC(=O)[C@H](CCCN=C(N)N)NC1=O | 0.017
8 | NCCCC[C@H]1NC(=O)[C@H](CCCNC(N)=O)NC(=O)[C@H](CCCN=C(N)N)NC(=O)[C@H](Cc2ccc(O)cc2)NC(=O)[C@@H](NC(=O)[C@H](Cc2ccc3ccccc3c2)NC(=O)[C@H](CCCN=C(N)N)NC(=O)[C@@H](N)CCCN=C(N)N)CSSC[C@@H](C(=O)N[C@@H](CCCN=C(N)N)C(=O)O)NC(=O)[C@H](CCCNC(N)=O)NC(=O)[C@H](CCCN=C(N)N)NC(=O)[C@H](Cc2ccc(O)cc2)NC(=O)[C@@H]2CCCN2C1=O | 0.016
9 | NCCCC[C@@H]1NC(=O)[C@H](CCCN=C(N)N)NC(=O)[C@H](Cc2ccc(O)cc2)NC(=O)[C@@H](NC(=O)[C@H](Cc2c[nH]c3ccccc23)NC(=O)[C@H](CCCN=C(N)N)NC(=O)[C@@H](N)CCCN=C(N)N)CSSC[C@@H](C(=O)N[C@@H](CCCN=C(N)N)C(=O)O)NC(=O)[C@H](CCCNC(N)=O)NC(=O)[C@H](CCCN=C(N)N)NC(=O)[C@H](Cc2ccc(O)cc2)NC(=O)[C@@H]2CCCN2C(=O)[C@@H](CCCCN)NC1=O | 0.0083
10 | NCCCC[C@@H]1NC(=O)[C@H](CCCN=C(N)N)NC(=O)[C@H](Cc2ccc(O)cc2)NC(=O)[C@@H](NC(=O)[C@H](Cc2ccc3ccccc3c2)NC(=O)[C@H](CCCNC(N)=O)NC(=O)[C@@H](N)CCCN=C(N)N)CSSC[C@@H](C(=O)N[C@@H](CCCN=C(N)N)C(=O)O)NC(=O)[C@H](CCCNC(N)=O)NC(=O)[C@H](CCCN=C(N)N)NC(=O)[C@H](Cc2ccc(O)cc2)NC(=O)[C@@H]2CCCN2C(=O)[C@@H](CCCCN)NC1=O | 0.45
11 | C[C@@H]1NC(=O)[C@H](CCCN=C(N)N)NC(=O)[C@H](Cc2ccc(O)cc2)NC(=O)[C@@H](NC(=O)[C@H](Cc2ccc3ccccc3c2)NC(=O)[C@H](CCCN=C(N)N)NC(=O)[C@@H](N)CCCN=C(N)N)CSSC[C@@H](C(=O)N[C@@H](CCCN=C(N)N)C(=O)O)NC(=O)[C@H](CCCNC(N)=O)NC(=O)[C@H](CCCN=C(N)N)NC(=O)[C@H](Cc2ccc(O)cc2)NC(=O)[C@@H]2CCCN2C(=O)[C@@H](CCCCN)NC1=O | 0.047
12 | C[C@H](NC(=O)[C@H](CCCN=C(N)N)NC(=O)[C@@H](N)CCCN=C(N)N)C(=O)N[C@H]1CSSC[C@@H](C(=O)N[C@@H](CCCN=C(N)N)C(=O)O)NC(=O)[C@H](CCCNC(N)=O)NC(=O)[C@H](CCCN=C(N)N)NC(=O)[C@H](Cc2ccc(O)cc2)NC(=O)[C@@H]2CCCN2C(=O)[C@@H](CCCCN)NC(=O)[C@H](CCCCN)NC(=O)[C@H](CCCN=C(N)N)NC(=O)[C@H](Cc2ccc(O)cc2)NC1=O | 2.5
13 | C[C@H](NC(=O)[C@@H]1CSSC[C@H](NC(=O)[C@H](Cc2ccc3ccccc3c2)NC(=O)[C@H](CCCN=C(N)N)NC(=O)[C@@H](N)CCCN=C(N)N)C(=O)N[C@@H](Cc2ccc(O)cc2)C(=O)N[C@@H](CCCN=C(N)N)C(=O)N[C@@H](CCCCN)C(=O)N[C@H](CCCCN)C(=O)N2CCC[C@H]2C(=O)N[C@@H](Cc2ccc(O)cc2)C(=O)N[C@@H](CCCN=C(N)N)C(=O)N[C@@H](CCCNC(N)=O)C(=O)N1)C(=O)O | 0.4
14 | C[C@@H]1NC(=O)[C@@H](CCCCN)NC(=O)[C@H](CCCCN)NC(=O)[C@H](CCCN=C(N)N)NC(=O)[C@H](Cc2ccc(O)cc2)NC(=O)[C@@H](NC(=O)[C@H](Cc2ccc3ccccc3c2)NC(=O)[C@H](CCCN=C(N)N)NC(=O)[C@@H](N)CCCN=C(N)N)CSSC[C@@H](C(=O)N[C@@H](CCCN=C(N)N)C(=O)O)NC(=O)[C@H](CCCNC(N)=O)NC(=O)[C@H](CCCN=C(N)N)NC(=O)[C@H](Cc2ccc(O)cc2)NC1=O (H-RR[2Nal]CYRK[dK]AYR[Cit]CR-OH; disulfide 4-13) | 0.017

Results, then the compound that gave them:

Row | EC50 [µM] | Structure (SMILES)
15 | 0.36 | C[C@@H]1NC(=O)[C@@H](NC(=O)[C@H](Cc2ccc3ccccc3c2)NC(=O)[C@H](CCCN=C(N)N)NC(=O)[C@@H](N)CCCN=C(N)N)CSSC[C@@H](C(=O)N[C@@H](CCCN=C(N)N)C(=O)O)NC(=O)[C@H](CCCNC(N)=O)NC(=O)[C@H](CCCN=C(N)N)NC(=O)[C@H](Cc2ccc(O)cc2)NC(=O)[C@@H]2CCCN2C(=O)[C@@H](CCCCN)NC(=O)[C@H](CCCCN)NC(=O)[C@H](CCCN=C(N)N)NC1=O [TC-14005]
16 | 0.018 | C[C@@H]1NC(=O)[C@H](Cc2ccc(O)cc2)NC(=O)[C@@H]2CCCN2C(=O)[C@@H](CCCCN)NC(=O)[C@H](CCCCN)NC(=O)[C@H](CCCN=C(N)N)NC(=O)[C@H](Cc2ccc(O)cc2)NC(=O)[C@@H](NC(=O)[C@H](Cc2ccc3ccccc3c2)NC(=O)[C@H](CCCN=C(N)N)NC(=O)[C@@H](N)CCCN=C(N)N)CSSC[C@@H](C(=O)N[C@@H](CCCN=C(N)N)C(=O)O)NC(=O)[C@H](CCCNC(N)=O)NC1=O [TC-14007]
17 | 0.88 | NCCCC[C@@H]1NC(=O)[C@H](CCCN=C(N)N)NC(=O)[C@H](Cc2ccc(O)cc2)NC(=O)[C@@H](NC(=O)[C@H](Cc2ccc3ccccc3c2)NC(=O)[C@H](CCCN=C(N)N)NC(=O)[C@@H](N)CCCN=C(N)N)CSSC[C@@H](C(=O)N[C@@H](CCCNC(N)=O)C(=O)O)NC(=O)[C@H](CCCNC(N)=O)NC(=O)[C@H](CCCN=C(N)N)NC(=O)[C@H](Cc2ccc(O)cc2)NC(=O)[C@@H]2CCCN2C(=O)[C@@H](CCCCN)NC1=O [TC-14006]
18 | 0.015 | NCCCC[C@@H]1NC(=O)[C@H](CCCN=C(N)N)NC(=O)[C@H](Cc2ccc(O)cc2)NC(=O)[C@@H](NC(=O)[C@H](Cc2ccc3ccccc3c2)NC(=O)[C@H](CCCN=C(N)N)NC(=O)[C@@H](N)CCCN=C(N)N)CSSC[C@@H](C(=O)N[C@@H](CCCN=C(N)N)C(=O)O)NC(=O)[C@H](CCCNC(N)=O)NC(=O)[C@H](CCCNC(N)=O)NC(=O)[C@H](Cc2ccc(O)cc2)NC(=O)[C@@H]2CCCN2C(=O)[C@@H](CCCCN)NC1=O [TC-14003]
19 | 0.004 | NCCCC[C@@H]1NC(=O)[C@H](CCCN=C(N)N)NC(=O)[C@H](Cc2ccc(O)cc2)NC(=O)[C@@H](NC(=O)[C@H](Cc2ccc3ccccc3c2)NC(=O)[C@H](CCCN=C(N)N)NC(=O)[C@@H](N)CCCN=C(N)N)CSSC[C@@H](C(=O)N[C@@H](CCCN=C(N)N)C(=O)O)NC(=O)[C@H](CCCNC(N)=O)NC(=O)[C@H](CCCN=C(N)N)NC(=O)[C@H](Cc2ccc(O)cc2)NC(=O)[C@@H]2CCCN2C(=O)[C@@H](CCCNC(N)=O)NC1=O [TC-14004]
20 | 1.3 | C[C@H](NC(=O)[C@@H](N)CCCN=C(N)N)C(=O)N[C@@H](Cc1ccc2ccccc2c1)C(=O)N[C@H]1CSSC[C@@H](C(=O)N[C@@H](CCCN=C(N)N)C(=O)O)NC(=O)[C@H](CCCNC(N)=O)NC(=O)[C@H](CCCN=C(N)N)NC(=O)[C@H](Cc2ccc(O)cc2)NC(=O)[C@@H]2CCCN2C(=O)[C@@H](CCCCN)NC(=O)[C@H](CCCCN)NC(=O)[C@H](CCCN=C(N)N)NC(=O)[C@H](Cc2ccc(O)cc2)NC1=O [TC-14001]
21 | 0.0093 | C[C@@H]1NC(=O)[C@H](Cc2ccc(O)cc2)NC(=O)[C@@H](NC(=O)[C@H](Cc2ccc3ccccc3c2)NC(=O)[C@H](CCCN=C(N)N)NC(=O)[C@@H](N)CCCN=C(N)N)CSSC[C@@H](C(=O)N[C@@H](CCCN=C(N)N)C(=O)O)NC(=O)[C@H](CCCNC(N)=O)NC(=O)[C@H](CCCN=C(N)N)NC(=O)[C@H](Cc2ccc(O)cc2)NC(=O)[C@@H]2CCCN2C(=O)[C@@H](CCCCN)NC(=O)[C@H](CCCCN)NC1=O [TC-14002]
